Measurements reported in publication PMC9571608, “Detection of Bitterness in Vitamins Is Mediated by the Activation of Bitter Taste Receptors” (Nutrients, 2022).
“And” between values parts separate entries of the source, which are not always exact repeats. Identical values can stand only once. Counter-ions that a name gives are not always drawn.

Tests used:
[1] = target: T1, TAS2R38 (Homo sapiens, UniProt P59533); experiment: Calcium mobilization assay, cells transiently expressing TAS2R38; type: cell-based; for TAS2R Receptor 38 response: key: +: positive responses (lines with background color)
T1 construct: expressed in transfected cells; host or cells: HEK293T cells stably expressing Gα16gust44
T1 sequence (P59533 1-333): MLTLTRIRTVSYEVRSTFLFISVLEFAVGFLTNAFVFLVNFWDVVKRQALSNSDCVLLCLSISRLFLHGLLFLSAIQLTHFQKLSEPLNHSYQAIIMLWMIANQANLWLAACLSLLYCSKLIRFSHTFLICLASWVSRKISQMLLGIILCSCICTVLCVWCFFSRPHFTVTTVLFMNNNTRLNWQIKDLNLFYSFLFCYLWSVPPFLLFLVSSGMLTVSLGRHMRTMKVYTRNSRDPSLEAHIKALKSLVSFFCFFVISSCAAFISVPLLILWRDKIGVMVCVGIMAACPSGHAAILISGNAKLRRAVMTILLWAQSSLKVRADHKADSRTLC
Experimental: (§1) A functional expression study was carried out as described previously. TAS2R expression vectors (pcDNA5FRT-SST3-TAS2R-HSV and pEAK-10-SST3-TAS2RHSV) were kindly provided by Wolfgang Meyerhof (German Institute of Human Nutrition Postdam-Rehbruecke, Nuthetal, Germany). For all constructs, the N-terminus contained the first 45 amino acids of rat somatostatin 3 (SST3) to improve membrane targeting. A sequence coding for a herpes simplex virus glycoprotein D epitope (HSV-tag) was added at the C-terminus to allow immunocytochemical detection of the receptor [13, 14, 23, 24]. HEK293T cells stably expressing the chimeric G protein α subunit Gα16gust44 [25, 26] were seeded into poly-D-lysine-coated 96-well black plates (0.35 × 10^5 cells/well) in high-glucose DMEM supplemented with 2 mM GlutaMAX, 10% dialysed fetal bovine serum penicillin/streptomycin, and G418 (400 µg/mL), and then placed under a humidified and controlled atmosphere (37 °C and 6.3% CO2) overnight. […]
(§2) Approximately 24–26 h after transfection, cells were loaded for 1 h at 37 °C with Fluo4-AM (2 µM, Molecular Probes), which had been previously mixed with pluronic acid F-127 (0.01%) in C1 buffer (130 mM NaCl, 5 mM KCl, 10 mM HEPES, 2 mM CaCl2, 10 mM pyruvic acid, pH 7.4, 300 mOsm) containing 2.5 mM probenecid (Life Technologies). […] The calcium signal was recorded for 90 s after injection of a range of compounds using a Flexstation 3 fluorometric imaging plate reader (Molecular Devices) at a wavelength of 510 nm after excitation at 488 nm. All substance concentrations were measured in triplicate in at least three independent experiments. […]
(§3) To obtain a dose–response curve, the ratio between the maximum variation in fluorescence after ligand addition and the initial fluorescence before addition (ΔF/F0) was calculated for each well. The fluorescence signals collected for each replicate were averaged for the same substance concentration, and the fluorescence changes in the corresponding mock-transfected cells were subtracted. […]

[2] = tested on: human bitter taste detection (sensory panel); experiment: Human bitter taste detection threshold, three-alternative forced choice (3-AFC), BET method; type: in vivo; conditions: 32 panelists, group BET
From the text: Based on bibliographic studies, preliminary works performed in the laboratory, and the results of taste receptor functional assays, the following vitamins were included in this study: vitamin B1 (thiamine hydrochloride), vitamin B2 (riboflavin phosphate), vitamin B3 (niacinamide), and vitamin B6 (pyridoxine hydrochloride). These vitamins are present in high quantities in nutritional supplements, safe for humans (except at very high concentrations), and can induce a strong bitter taste. These concentrations were determined according to the toxicity threshold of each compound tested and the maximum daily reference intake. These compounds were prepared in commercial mineral water (Evian®, Evian, France).
The threshold values for bitter taste detection were determined by 32 panelists (18–65 years old, 14 males and 18 females, without sensory perception disorders, food allergies, drug treatments, or heart, lung, or cardiac pathologies) who were recruited from Dijon (France) and the surrounding areas. An ethical committee approved this study (Personal Protection Committee of Rennes—Ouest V, protocol code 2018A01342-53), and all panelists signed an informed consent form. A sensory test called three-alternative forced choice (3-AFC) was used in accordance with the protocol detailed in NF ISO 13301. Before performing the measurement sessions, four training sessions were provided to familiarize the panelists with the bitter taste, test procedure, and signal acquisition software. In this discriminative test, six series consisting of three samples, which were each encoded using randomly generated three-digit numbers, were simultaneously delivered to the panelists. The six 3-AFC presentations contained two blank samples (commercial mineral water, manufacturer: Evian, France) and ascending concentrations of vitamin solution. Before the test, subjects were advised that each presentation consisted of two samples that contained only water and one sample that contained a taste. For each 3-AFC presentation, subjects were asked to take the samples sequentially from left to right. Then, they placed the entirety of each sample solution in their mouths and carefully gargled to ensure that the solution was dispersed throughout the mouth. A sip-and-spit procedure was used; subjects rinsed their mouths with commercial mineral water between each series of tests. Subjects were asked to indicate which of the samples contained the stimulus. If a subject perceived no difference between the three samples, he or she was asked to choose one (forced choice). The sensory tests were conducted in a room devoted to sensory evaluation. For the case of colored samples, black-colored glasses were used, and tastings were performed under red light. […] The aim of this sensory analysis was to determine the bitter taste detection threshold for these vitamins and not an olfactory detection threshold. Therefore, the measurements were conducted using pinched nose clips. The subjects waited one minute between each series and had to thoroughly rinse their mouths. Four repetitions were performed per subject for each vitamin to obtain statistically interpretable results, which represented a total of 288 samples. During the sensory analysis session, a bitterness detection threshold of only two vitamins was used (36 samples) to avoid the ingestion of a high vitamin quantity, which is potentially harmful. The answers from the panelists were collected using software dedicated to sensory analysis (FIZZ acquisition V.2.51 software).
The best estimate threshold (BET) method was used to determine the bitter detection threshold for four vitamins. The individual best-estimated detection threshold (BET) was proposed in ASTM E679-04. ASTM E679-04 is a standard practice for the determination of odor and taste thresholds via a forced-choice ascending concentration series method of limits. […]

[3] = target: T2, TAS2R14 (Homo sapiens, UniProt Q9NYV8); experiment: Calcium mobilization assay, cells transiently expressing TAS2R14; type: cell-based; for TAS2R Receptor 14 response: key: +: positive responses (lines with background color)
T2 construct: expressed in transfected cells; host or cells: HEK293T cells stably expressing Gα16gust44
T2 sequence (Q9NYV8 1-317): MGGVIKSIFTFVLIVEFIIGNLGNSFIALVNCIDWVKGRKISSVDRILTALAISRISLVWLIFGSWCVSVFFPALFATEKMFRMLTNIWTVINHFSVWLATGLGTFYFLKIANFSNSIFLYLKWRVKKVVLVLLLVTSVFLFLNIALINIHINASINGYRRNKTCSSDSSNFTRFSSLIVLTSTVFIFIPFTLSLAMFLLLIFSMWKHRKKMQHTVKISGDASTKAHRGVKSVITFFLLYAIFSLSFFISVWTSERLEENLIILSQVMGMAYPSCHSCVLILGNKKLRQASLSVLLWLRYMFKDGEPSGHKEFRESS
Experimental: as §1, §2, §3

[4] = tested on: 25 human TAS2Rs; experiment: Taste receptor functional assay, panel of 25 human TAS2Rs; type: cell-based; conditions: lowest concentration that could elicit TAS2R activation
Experimental: A functional expression study was carried out as described previously. TAS2R expression vectors (pcDNA5FRT-SST3-TAS2R-HSV and pEAK-10-SST3-TAS2RHSV) were kindly provided by Wolfgang Meyerhof (German Institute of Human Nutrition Postdam-Rehbruecke, Nuthetal, Germany). For all constructs, the N-terminus contained the first 45 amino acids of rat somatostatin 3 (SST3) to improve membrane targeting. A sequence coding for a herpes simplex virus glycoprotein D epitope (HSV-tag) was added at the C-terminus to allow immunocytochemical detection of the receptor [13, 14, 23, 24]. […]
as §2

[5] = target: T3, TAS2R7 (Homo sapiens, UniProt Q9NYW3); experiment: Calcium mobilization assay, cells transiently expressing TAS2R7; type: cell-based; set-up: expressed in transfected cells; host or cells: HEK293T cells stably expressing Gα16gust44; for TAS2R Receptor 7 response: key: +: positive responses (lines with background color)
T3 sequence (Q9NYW3 1-318): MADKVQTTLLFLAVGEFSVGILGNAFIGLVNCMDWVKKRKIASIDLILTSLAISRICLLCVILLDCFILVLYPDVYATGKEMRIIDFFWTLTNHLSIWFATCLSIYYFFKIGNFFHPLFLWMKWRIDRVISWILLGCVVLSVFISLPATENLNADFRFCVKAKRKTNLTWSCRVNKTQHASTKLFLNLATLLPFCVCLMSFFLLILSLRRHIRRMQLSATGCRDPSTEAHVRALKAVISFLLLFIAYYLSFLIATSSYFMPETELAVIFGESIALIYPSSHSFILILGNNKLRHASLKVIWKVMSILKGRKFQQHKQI
Experimental: A functional expression study was carried out as described previously. TAS2R expression vectors (pcDNA5FRT-SST3-TAS2R-HSV and pEAK-10-SST3-TAS2RHSV) were kindly provided by Wolfgang Meyerhof (German Institute of Human Nutrition Postdam-Rehbruecke, Nuthetal, Germany). For all constructs, the N-terminus contained the first 45 amino acids of rat somatostatin 3 (SST3) to improve membrane targeting. A sequence coding for a herpes simplex virus glycoprotein D epitope (HSV-tag) was added at the C-terminus to allow immunocytochemical detection of the receptor [13, 14, 23, 24]. HEK293T cells stably expressing the chimeric G protein α subunit Gα16gust44 [25, 26] were seeded into poly-D-lysine-coated 96-well black plates (0.35 × 10^5 cells/well) in high-glucose DMEM supplemented with 2 mM GlutaMAX, 10% dialysed fetal bovine serum penicillin/streptomycin, and G418 (400 µg/mL), and then placed under a humidified and controlled atmosphere (37 °C and 6.3% CO2) overnight. After 24–26 h of incubation, cells were transiently transfected with TAS2R expression plasmids (120 ng/well) using Lipofectamine 2000 reagent (0.4 µL/well) (Thermo Fisher Scientific, Illkirch-Graffenstaden, France).
Approximately 24–26 h after transfection, cells were loaded for 1 h at 37 °C with Fluo4-AM (2 µM, Molecular Probes), which had been previously mixed with pluronic acid F-127 (0.01%) in C1 buffer (130 mM NaCl, 5 mM KCl, 10 mM HEPES, 2 mM CaCl2, 10 mM pyruvic acid, pH 7.4, 300 mOsm) containing 2.5 mM probenecid (Life Technologies). Approximately one hour after loading, the plate was rinsed twice with 100 µL of C1 buffer. The calcium signal was recorded for 90 s after injection of a range of compounds using a Flexstation 3 fluorometric imaging plate reader (Molecular Devices) at a wavelength of 510 nm after excitation at 488 nm. All substance concentrations were measured in triplicate in at least three independent experiments. As cell transfection and substances can interfere with cellular viability and calcium assays, all compounds were tested on mock-transfected cells (cells transfected with empty vectors) on the same plates for all substance concentrations used.
(§4) To obtain a dose–response curve, the ratio between the maximum variation in fluorescence after ligand addition and the initial fluorescence before addition (ΔF/F0) was calculated for each well. The fluorescence signals collected for each replicate were averaged for the same substance concentration, and the fluorescence changes in the corresponding mock-transfected cells were subtracted. […] The dose–response data were fitted, and EC50 values were calculated using a four-parameter logistic equation using SigmaPlot software (Systat Software, San Jose, CA, USA). […]

[6] = target: T4, TAS2R10 (Homo sapiens, UniProt Q9NYW0); experiment: Calcium mobilization assay, cells transiently expressing TAS2R10; type: cell-based; for TAS2R Receptor 10 response: key: +: positive responses (lines with background color)
T4 construct: expressed in transfected cells; host or cells: HEK293T cells stably expressing Gα16gust44
T4 sequence (Q9NYW0 1-307): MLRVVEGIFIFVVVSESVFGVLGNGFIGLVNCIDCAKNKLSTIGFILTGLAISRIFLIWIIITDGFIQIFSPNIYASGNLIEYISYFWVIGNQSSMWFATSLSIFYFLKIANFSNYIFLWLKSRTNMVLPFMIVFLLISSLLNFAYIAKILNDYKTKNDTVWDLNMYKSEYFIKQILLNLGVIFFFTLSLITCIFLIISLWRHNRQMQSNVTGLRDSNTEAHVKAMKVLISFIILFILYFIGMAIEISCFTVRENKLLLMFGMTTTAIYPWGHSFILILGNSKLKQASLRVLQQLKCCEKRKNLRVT
Experimental: as §1
Approximately one hour after loading, the plate was rinsed twice with 100 µL of C1 buffer. The calcium signal was recorded for 90 s after injection of a range of compounds using a Flexstation 3 fluorometric imaging plate reader (Molecular Devices) at a wavelength of 510 nm after excitation at 488 nm. All substance concentrations were measured in triplicate in at least three independent experiments. […]
as §4

[7] = tested on: human taste perception; set-up: method as in doi:10.3758/BF03203878; conditions: concentration omitted in the cited paper; cited from earlier work
[8] = HEK293T-Gα16gust44 cells, calcium signal, up to M.A.C
[9] = aqueous solution (mineral water), nose clips

CC1=C(/C=C/C(C)=C/C=C/C(C)=C/C=O)C(C)(C)CCC1 [Vitamin A, retinal]
TAS2R38 activation ([1]; 1 mM): strongly activate | TAS2R Receptor 38 response [1, 8]: + | EC50 ([1]; TAS2R38-expressing HEK293T cells, Fluo-4 calcium response, read-out: EC50 (half-maximal TAS2R38 activation)): 290 ± 200 µM

Cc1cc2nc3c(=O)[nH]c(=O)nc-3n(C[C@H](O)[C@H](O)[C@H](O)COP(=O)(O)O)c2cc1C [Vitamin B2, riboflavin phosphate]
Human Bitter Taste Detection Threshold ([2]; Figure 3, aqueous solution): 0.65 mM | Human Bitter Taste Detection Threshold [2, 9]: 0.65 mM

NC(=O)c1cccnc1 [Vitamin B3, niacinamide]
Human Bitter Taste Detection Threshold ([2]; Figure 3, aqueous solution): 5.5 mM | Human Bitter Taste Detection Threshold [2, 9]: 5.5 mM and 5.50 mM

Cc1ncc(CO)c(CO)c1O [Vitamin B6, pyridoxine hydrochloride]
TAS2R14 response ([3]; 100 mM): robust response | TAS2R Receptor 14 response [3, 8]: + | EC50 ([3]; TAS2R14-expressing HEK293T cells, Fluo-4 calcium response, read-out: EC50 (half-maximal TAS2R14 activation)): 10.5 ± 1.47 mM | Cellular Bitter Taste Detection Threshold [4]: 1 mM and 1.00 mM | Human Bitter Taste Detection Threshold ([2]; Figure 3, aqueous solution): 5.2 mM | Human Bitter Taste Detection Threshold ([2]; aqueous solution (mineral water), nose clips, listed as B6): 5.20 mM | Human Bitter Taste Detection Threshold ([2]; aqueous solution (mineral water), nose clips, listed as vitamin B6): 5.2 mM | TAS2R7 response ([5]; 100 mM): robust response | TAS2R Receptor 7 response [5, 8]: + | EC50 ([5]; TAS2R7-expressing HEK293T cells, Fluo-4 calcium response, read-out: EC50 (half-maximal TAS2R7 activation)): 25.5 ± 11.8 mM

C=C1CC[C@H](O)C/C1=C/C=C1\CCC[C@]2(C)[C@@H]([C@H](C)CCCC(C)C)CC[C@@H]12 [Vitamin D, cholecalciferol]
TAS2R10 activation ([6]; 1 mM): strongly activate | TAS2R Receptor 10 response [6, 8]: + | EC50 ([6]; read-out: EC50 (half-maximal TAS2R10 activation), TAS2R10-expressing HEK293T cells, Fluo-4 calcium response): 250 ± 200 µM | Taste described by sensory analysis [7]: tasteless
